From ChEMBL document CHEMBL4145553, “Design, synthesis, and biological evaluation of novel amide and hydrazide based thioether analogs targeting Histone deacteylase (HDAC) enzymes” (Eur J Med Chem, 2018)

Experiments:
Type in all cases: functional
[1] = system: NCI-H522; experiment: Growth inhibition of human NCI-H522 cells assessed as cell growth at 10^-4 M incubated for 48 hrs by sulforhodamine B assay relative to control; conditions: NCI-H522, 48 h, read-out: Activity
[2] = system: COLO 205; experiment: Growth inhibition of human COLO205 cells assessed as cell growth at 10^-5 M incubated for 48 hrs by sulforhodamine B assay relative to control; conditions: COLO 205, 48 h, read-out: Activity
[3] = system: Hs-578T; experiment: Growth inhibition of human Hs 578T cells assessed as cell growth at 10^-4 M incubated for 48 hrs by sulforhodamine B assay relative to control; conditions: read-out: Activity
[4] = system: DU-145; experiment: Growth inhibition of human DU145 cells incubated for 48 hrs by sulforhodamine B assay; conditions: DU-145, 48 h
[5] = system: M14; experiment: Growth inhibition of human M14 cells assessed as cell growth at 10^-4 M incubated for 48 hrs by sulforhodamine B assay relative to control; conditions: M14, 48 h, read-out: Activity
[6] = read-out: LC50 (the source's name)
[7] = read-out: pLC50 (the source's name) (converted)

Structure (SMILES) | growth at 100 µM [1] | growth at 10 µM [2] | growth at 100 µM [3] | GI50 ([4]; read-out: GI50) | CC50 [4, 6] | TGI ([4]; read-out: TGI) | GI50 ([4]; read-out: pGI50 (converted)) | CC50 [4, 7] | TGI ([4]; read-out: pTGI (converted)) | growth at 100 µM [5]
CCS/C(Nc1ccccc1)=C(\C#N)C(=O)Nc1ccc(OC)cc1 | -11% | 1% | 16% | 3.48 µM | > 100 µM | 49.8 µM | 3.47 µM | > 100 µM | 50.1 µM | 
CCS/C(Nc1ccccc1)=C(\C#N)C(=O)N/N=C\c1ccc(Cl)cc1Cl |  |  |  | 3.57 µM | > 100 µM | > 100 µM | 3.55 µM | > 100 µM | > 100 µM | -3%
